Drawing on patent publication US10023613B2, “Peptidomimetic macrocycles as modulators of MCL-1” (AILERON Therapeutics, Inc., priority 2015, dated 2018), this text covers EC50 for one molecule.

The test system of this test is Human Raji cells. It is filed as cell-based. As to conditions: Raji Cell Viability, 48 h, 5% serum. How it is done:
BIM peptidomimetic macrocycles were tested for cell killing at various concentrations. Human Raji cells were treated with increasing doses of peptidomimetic macrocycles corresponding to SEQ ID NO. 763 (FIGS. 1 and 2), 1143 (FIGS. 1-3), and 1621 (FIGS. 3 and 4). An % Viable cells was calculated for each dose of the peptidomimetic macrocycle from a non-linear fit of response vs dose (GraphPad Prism). […]

Bridge positions count the residues as written; N and C are the ends. Square brackets hold non-standard residues; d marks the D form. Peptide text beside a SMILES is read from it. R8 = C=CCCCCCC[C@@](C)(N)C(=O)O; S5 = C=CCCC[C@](C)(N)C(=O)O

`CC[C@H](C)[C@H](NC(C)=O)C(=O)N[C@@H](Cc1c[nH]c2ccccc12)C(=O)N[C@H](C(=O)N[C@@H](C)C(=O)N[C@@H](CCC(N)=O)C(=O)N[C@@H](C)C(=O)N[C@@H](CC(C)C)C(=O)N[C@@H](CCCNC(=N)N)C(=O)N[C@]1(C)CCCCCCC=CCCC[C@@](C)(C(=O)N[C@@H](Cc2ccc(O)cc2)C(=O)N[C@@H](Cc2ccc(O)cc2)C(=O)N[C@@H](C)C(N)=O)NC(=O)[C@H](CC(N)=O)NC(=O)[C@H](Cc2ccccc2)NC(=O)[C@H](CCC(=O)O)NC(=O)[C@H](CC(=O)O)NC(=O)CNC(=O)[C@H]([C@@H](C)CC)NC1=O)[C@@H](C)CC` [compound 1647] (Ac-IWIAQALR[R8]IGDEFN[S5]YYA-NH2; staple 9-16): the EC50 – broadly, the concentration giving half of the maximal effect – is above 40 µM.
